Data: patent US10538567B2, “Compounds as peptidic trigonal GLP1/glucagon/GIP receptor agonists” (priority 2016, dated 2020)
Numbered stars: 1 amine (or outer) side, 2 acyl side, 3 side chain; on linkers, the order of the positions; unused ones are H or OH. Square brackets hold non-standard residues; d marks the D form. Side chains are listed from the residue outwards. Peptide text beside a SMILES is read from it. * marks the point of attachment. γGlu = O=C(O)[C@H](CCC(=O)[*:2])N[*:1]; Palmitoyl = CCCCCCCCCCCCCCCC(=O)*; Aib = CC(C)(N)C(=O)O

Key:
[1] = Dynamic light scattering, hydrodynamic radius as surrogate for DLS interaction parameter kD; assay type: physicochemical
How it was run: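 Rh and diffusion constant D averaged over triplicates at 1 and 5 mg/ml peptide in 25 mM acetate pH 4.5 with L-methionine, m-cresol and glycerol; 25 °C, 830 nm laser, 158° detection, NNLS fitting. Rh5<Rh1 or D5>D1 taken as kD>0 (repulsive interactions).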

[2] = Solubility assessment in solubility buffer system A; assay type: physicochemical; conditions: acetate buffer pH 4.5 with m-cresol; acetate buffer pH 4.5, 2.7 mg/ml m-cresol, target 10 mg/ml
Experimental: Prior to the solubility measurement of a peptide batch, its purity was determined through UPLC/MS.
Therefore solutions from solid samples were prepared in a buffer system with a concentration of 10 mg/mL compound based on the previously determined % purity:
Solubility buffer system A) Acetate Buffer pH 4.5, 100 mM sodium acetate trihydrate, 2.7 mg/ml m-Cresol
UPLC-UV was performed after 1 hour of gentle agitation from the supernatant, which was obtained after 15 min of centrifugation at 2500 RCF (relative centrifugal acceleration).
The solubility was determined by the comparison of the UV peak area of 2 μL-injection of a buffered sample diluted 1:10 with a standard curve of a reference peptide with known concentration. The different UV extinction coefficients of sample and reference peptide were calculated based on the different amino acid sequences and considered in the concentration calculation.
Peptide samples were prepared in solubility buffer system A and solubility was assessed as described in Methods.

human GIP receptor = biological target: T1, human GIP receptor (Homo sapiens, UniProt P48546); assay: cAMP response (HTRF) of HEK-293 cells stably expressing human GIP receptor; assay type: cell-based; conditions: Table 8; read-out: EC50 hGIP R
T1 construct: expressed in transfected cells; host or cells: HEK-293
T1 sequence (P48546 22-466): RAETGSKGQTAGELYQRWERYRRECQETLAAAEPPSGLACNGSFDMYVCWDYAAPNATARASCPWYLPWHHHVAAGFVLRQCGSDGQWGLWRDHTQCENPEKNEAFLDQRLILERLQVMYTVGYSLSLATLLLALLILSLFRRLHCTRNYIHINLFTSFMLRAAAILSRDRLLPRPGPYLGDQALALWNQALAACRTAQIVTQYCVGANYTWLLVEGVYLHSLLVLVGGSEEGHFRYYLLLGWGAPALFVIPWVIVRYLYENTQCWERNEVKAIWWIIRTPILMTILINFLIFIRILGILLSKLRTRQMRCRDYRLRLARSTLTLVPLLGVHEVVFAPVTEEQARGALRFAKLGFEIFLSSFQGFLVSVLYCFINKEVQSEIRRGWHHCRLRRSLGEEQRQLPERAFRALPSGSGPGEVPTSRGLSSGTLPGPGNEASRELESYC
How it was run: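 HEK-293 cells stably expressing human GIP receptor were incubated with compound for 30 min at room temperature in HBSS/20 mM HEPES/0.1% BSA with 2 mM IBMX. cAMP was measured by HTRF (665/616 nm ratio) after 1 h with detection reagents in lysis buffer; EC50 is the concentration giving 50% of maximal response.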

Delta Rh [nm] = Rh5 − Rh1 ([1]; DLS buffer system A pH 4.5): −0.2 nm | Rh1 [nm] c = 1 mg/ml ([1]; hydrodynamic radius, 1 mg/ml, DLS buffer system A pH 4.5, method C, 25° C.): 2.8 nm | Rh5 [nm] c = 5 mg/ml ([1]; hydrodynamic radius, 5 mg/ml, DLS buffer system A pH 4.5, method C, 25° C.): 2.6 nm | solubility at 1 h [2]: > 9300 µg/mL | EC50 (human GIP receptor): 2.6 pM
SMILES: CCCCCCCCCCCCCCCC(=O)N[C@@H](CCC(=O)N[C@@H](CCC(=O)NCCCC[C@H](NC(=O)[C@H](CC(C)C)NC(=O)[C@H](CCCCN)NC(=O)[C@H](CO)NC(=O)[C@H](CC(C)C)NC(=O)[C@H](CC(=O)O)NC(=O)[C@H](CO)NC(=O)[C@@H](NC(=O)[C@H](Cc1ccccc1)NC(=O)[C@@H](NC(=O)CNC(=O)[C@H](Cc1c[nH]cn1)NC(=O)C(C)(C)NC(=O)[C@@H](N)Cc1c[nH]cn1)[C@@H](C)O)[C@@H](C)O)C(=O)N[C@@H](CCC(=O)O)C(=O)N[C@@H](CCC(=O)O)C(=O)N[C@@H](CCC(N)=O)C(=O)N[C@@H](CCCNC(=N)N)C(=O)N[C@@H](CCC(N)=O)C(=O)N[C@@H](CCCCN)C(=O)N[C@@H](CCC(=O)O)C(=O)N[C@@H](Cc1ccccc1)C(=O)N[C@H](C(=O)N[C@@H](CCC(=O)O)C(=O)N[C@@H](Cc1c[nH]c2ccccc12)C(=O)N[C@@H](CC(C)C)C(=O)N[C@@H](CCCCN)C(=O)N[C@@H](C)C(=O)N[C@H](C)C(=O)NCC(=O)N1CCC[C@H]1C(=O)N1CCC[C@H]1C(=O)N[C@@H](CO)C(=O)NC(C)(C)C(=O)N[C@@H](CCCCN)C(=O)N1CCC[C@H]1C(=O)N1CCC[C@H]1C(=O)N1CCC[C@H]1C(=O)N[C@@H](CCCCN)C(N)=O)[C@@H](C)CC)C(=O)O)C(=O)O [SEQ ID NO: 9, H-Aib-H-G-T-F-T-S-D-L-S-K-L-K[gGlu-gGlu-Palm]-E-E-Q-R-Q-K-E-F-I-E-W-L-K-A-dAla-G-P-P-S-Aib-K-P-P-P-K-NH2] (H-H[Aib]HGTFTSDLSKLK([γGlu-γGlu-Palmitoyl])EEQRQKEFIEWLKA[dA]GPPS[Aib]KPPPK-NH2)
